Measured values: patent US12390483B2, “Compounds and methods for treating neurological and cardiovascular conditions” (Astrocyte Pharmaceuticals, Inc., priority 2016, dated 2025)
pEC50: −log10 of the molar value.

What was measured:
[1] = tested on: photothrombosis-induced stroke infarctions; experiment: Photothrombosis-induced stroke in mice, TTC-stained brain infarction size; format: in vivo
Procedure: Photothrombosis-induced Stroke: Photothrombosis was performed as described in Zheng et al 2010 (PloS One 5 (12): e14401). In brief, Rose Bengal is a fluorescent dye that when injected into the vasculature and excited, generates singlet oxygen that damages the endothelial wall and induces a local thrombosis (clot). Using this technique, mice were given a 0.1 mL tail-vein injection of sterilized Rose Bengal (RB, Sigma, U.S.A.) in artificial cerebral spinal fluid (aCSF). The RB concentration was 20 mg/mL. A cortical region was centered in the imaging field and illuminated with a green laser (543 nm, 5 mW) using a 0.8-NA 40× water-immersion objective (Nikon, Tokyo). The clot formation was monitored in real time until the targeted vessel or downstream capillaries were firmly occluded. Stable clots were subsequently identified by a non-fluorescent vessel segmentation ending with highly fluorescent regions. […] Treatments, MRS4322 (0.16 mg/kg; 0.5 μmol/kg) or MRS2365 (0.24 mg/kg; 0.5 μmol/kg) were introduced via intraperitoneal injections (i.p.). […] Animals and Photothrombosis-induced Stroke: Stroke was performed as described in Zheng et al 2010 (PloS One 5 (12): e14401). Female C57Bl/6 mice (4-6 months) were used in this study. From the methods of this manuscript: Mice were anesthetized at 3% isoflurane with 100% oxygen and subsequently maintained at 1% isoflurane through a nosecone. Depth of anesthesia was monitored and regulated according to vital signs, pinch withdrawal and eye blinks. Body temperature was maintained at 37° C. by a feedback-controlled heating pad (Gaymar T/Pump). Vital signs including oxygen saturation, respiratory rate, and heart rate were continuously monitored by using the MouseOx system (STARR Life Sciences). The hair on each mouse's head was trimmed and a small incision was made in the scalp to expose the skull. A custom-made stainless steel plate was glued to the skull with VetBond Tissue Adhesive (3M, St Paul, MN). A cranial thinned-skull imaging window was created over the right primary somatosensory cortex (˜1.5 mm posterior to Bregma and 2 mm lateral from midline) depending on the experiment. In brief, a large region of the skull was first thinned with the electric drill and then further thinned with a surgical blade. The final thickness of the thinned skull was approximately 50 μm. After the cranial imaging window was created, mice were transferred to microscope stage and used for photothrombosis or imaging experiments. For the repeat imaging experiments, the plate was carefully detached from the skull and the scalp was sutured (Ethicon 6-0 sild suture). After each experiment, the mice were either returned to cages until the next timepoint or sacrificed. All procedures were approved by the Institutional Animal Care and Use Committee (IACUC) at University of Texas Health Science Center at San Antonio. Thirty minutes following stroke or sham (uninjured), mice were treated with either vehicle (saline) or drugs (MRS4322, MRS2365, MRS5698 or Cl-IBMECA). Post photothrombotic infarction evaluation. The size of cerebral infarcts was evaluated using 2,3,5-Triphenyltetrazolium chloride (TTC) staining as described in Zheng et al 2010 (PloS One 5 (12): e14401). In brief, RB-induced lesions in brain slices were stained with TTC. TTC is a colorless dye that stains healthy brain tissue red when reduced by the mitochondrial enzyme succinyl dehydrogenase (Bederson J B et al., 1986). The absence of staining in necrotic tissue is then used to define the area of a brain infarction. Mice were sacrificed by cervical dislocation, their brains removed and then placed in ice cold HBSS for 3 minutes. […] The sections were fixed in 10% buffered formaldehyde solution overnight at 4° C. Slices were imaged on a flatbed scanner (HP scanjet 8300) for analysis of the lesion size at 1200 dpi. Photothrombosis-induced Stroke: Photothrombosis was performed as described in Zheng et al. 2010 (PloS One 5 (12): e14401). […]

GFAP expression = experiment: Traumatic brain injury (TBI) in mice, Western blot analysis for GFAP; format: in vivo; conditions: summary statement
Procedure: Animals and traumatic brain injury (TBI): TBI was performed with a controlled closed skull injury model as described in […] al. 2012 (J. Neurotrauma 30, 55-66). Following the method described therein, a pneumatic impact device was used to generate a moderate TBI leaving the skull and dura matter intact. To achieve this, C57BL/6 mice were anesthetized with isoflurane (3% induction, 1% maintenance) in 100% oxygen. A body temperature of 37° C. was maintained using a temperature-controlled heated surgical table. A small midline incision was made on the scalp using aseptic surgical techniques. A 5 mm stainless steel disc was positioned on the skull and fixed using superglue on the right parietal bone between bregma and lamda over the somatosensory cortex. The mouse was then positioned on a stage directly under the pneumatic impact tip. […] Scalp incisions were closed using 4-0 nylon braided suture and antibiotic ointment applied to the incision. Mice were placed in a Thermo-Intensive Care Unit (Braintree Scientific model FV-1; 37° C.; 27% 02) and monitored until fully awake and moving freely. […] Western Blot Analysis for GFAP: At selected survival times, mice were anesthetized under isoflurane and sacrificed. The brain was removed and placed on ice for dissection into impacted and non-impacted brain hemispheres. […] The homogenate was transferred to a 2 mL tube and centrifuged at 1000 g for 10 minutes at 4° C. and the supernatant was collected and analyzed. Protein concentration was determined by the BCA assay using a 1:50 dilution. 100 μg of protein was removed as an aliquot for each sample and Laemmli buffer containing β-mercaptoethanol added and the sample placed in a heat block for 3 minutes at 95° C. Samples were loaded on a 12% gel and ran at 80 V for 20 minutes followed by 40 minutes at 130 V. Samples were transferred to nitrocellulose membrane at 100 V for 1 hour. The membrane was blocked with 5% milk in TBS-T for 30 minutes. GFAP (1:1000-Imgenex IMG-5083-A) was added and placed at 4° C. overnight. The membrane was washed with TBS-T three times for 10 minutes. Secondary antibody for GFAP (Donkey anti-rabbit HRP conjugated (ImmunoJackson Laboratories; 711-035-152; 1:20000) was applied at room temperature for 1 hour. The membranes were washed with TBS-T for 15 minutes (3 times) and developed using the Western Lightning Plus-ECL kit (PerkinElmer, Inc.) following manufacturer's directions.

[2] = mouse plasma and tissue; Tosh et al. Purinergic Signalling (2015) 11:371-387; cited from earlier work
Human A3 = target: T1, Human A3 (Homo sapiens, UniProt P0DMS8); conditions: J. Med. Chem. 2002 45:4471-4484 (Gao et al.); cited from earlier work
T1 sequence (P0DMS8 1-318): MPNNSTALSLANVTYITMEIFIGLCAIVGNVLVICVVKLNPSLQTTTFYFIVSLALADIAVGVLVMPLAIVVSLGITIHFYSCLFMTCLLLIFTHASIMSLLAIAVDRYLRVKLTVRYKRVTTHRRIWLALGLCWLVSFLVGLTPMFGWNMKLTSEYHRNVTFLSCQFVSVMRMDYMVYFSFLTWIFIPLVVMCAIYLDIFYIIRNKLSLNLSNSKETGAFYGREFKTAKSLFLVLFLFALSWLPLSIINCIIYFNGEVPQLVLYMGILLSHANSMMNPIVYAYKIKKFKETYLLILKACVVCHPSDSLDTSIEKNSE

CCCOC(=O)c1c(-c2ccccc2)nc(CC)c(C(=O)SCC)c1CCC [MRS1523, reference compound]
effect of antagonist on neuroprotection of MRS4322 and MRS2365 treatments after stroke ([1]; MRS1523 2 mg/kg i.p. at 0 and 2 hours): inhibits neuroprotection

CNC(=O)[C@H]1O[C@@H](n2cnc3c(NCc4cccc(I)c4)nc(Cl)nc32)[C@H](O)[C@@H]1O [Cl-IB-MECA, 2-Chloro-N^6-(3-iodobenzyl)-adenosine-5′-N-methyluronamide, reference compound]
efficacy in the mouse TBI model (GFAP expression): weakly active

CNC(=O)[C@@]12C[C@@H]1[C@@H](n1cnc3c(NCc4cccc(Cl)c4)nc(C#Cc4ccc(F)c(F)c4)nc31)[C@H](O)[C@@H]2O [MRS5698, reference compound]
protein binding reported in the literature [2]: 99.88%
size of brain infarctions in mice pretreated with the A3 receptor antagonist MRS1523 ([1]; MRS1523 2 mg/kg i.p. at 0 and 2 hours, treatment within 30 minutes of clot formation, 24 hours): not reduced

Nc1nc(Cl)nc2c1ncn2[C@H]1[C@H](O)[C@H](O)[C@]2(CO)C[C@H]12 [MRS1873]
size of the brain infarction (TTC staining) ([1]; Example 7: mice, 100 ul of 100 uM i.p. within 30 minutes of clot formation, 24 hours after stroke, versus vehicle): significantly reduced
pEC50 (Human A3): 6.10
